64 compounds from US20250034170A1, “SMALL MOLECULE MODULATORS OF GLUCOCEREBROSIDASE ACTIVITY AND USES THEREOF” (Vanqua Bio, Inc., priority 2021, published 2025) can be followed below.

By EC50 is commonly meant the concentration that produces a half-maximal response. Read a high EC50 as lower potency in that assay.

Some results are limits rather than exact numbers.

The target of the experiment is T1, GCase (Homo sapiens, UniProt P04062).
T1 construct: endogenous in cells; host or cells: HeLa cells
T1 sequence (P04062 40-536): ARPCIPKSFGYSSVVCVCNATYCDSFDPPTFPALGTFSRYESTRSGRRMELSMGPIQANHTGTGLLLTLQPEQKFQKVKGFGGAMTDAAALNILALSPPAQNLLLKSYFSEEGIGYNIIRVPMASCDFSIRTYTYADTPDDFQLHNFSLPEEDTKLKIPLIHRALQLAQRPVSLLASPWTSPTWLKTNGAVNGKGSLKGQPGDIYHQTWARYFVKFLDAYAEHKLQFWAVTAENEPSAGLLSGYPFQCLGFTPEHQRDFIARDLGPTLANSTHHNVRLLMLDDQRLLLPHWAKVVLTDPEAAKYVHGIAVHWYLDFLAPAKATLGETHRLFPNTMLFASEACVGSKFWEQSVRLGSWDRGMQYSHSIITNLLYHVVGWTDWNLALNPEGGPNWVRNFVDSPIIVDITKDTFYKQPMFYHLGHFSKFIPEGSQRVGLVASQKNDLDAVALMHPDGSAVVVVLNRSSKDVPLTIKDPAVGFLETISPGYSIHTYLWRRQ
Description: activation of GCase in a live cell PFB assay in HELA cells. In kind it is cell-based. Conditions: activation of GCase, EC50 ranges. The procedure:
Exemplary compounds were evaluated for activation of GCase in a live cell PFB assay in HELA cells (essentially as described in Ysselstein et al., “LRRK2 kinase activity regulates lysosomal glucocerebrosidase in neurons derived from Parkinson's disease patients” Nature Communications (2019) 10:5570). […] EC50 ranges: A: <10 μM; B: >10-50 μM; C: >50-100 μM; D: >100 μM.
`FC(F)Cn1ncc2ncc(N3CCC4(CN(c5ccc(OC(F)(F)F)nc5)C4)C3)nc21` [Cmpd 451] yielded an EC50 of 10 to 50 µM.

Regarding `FC(F)Cn1ncc2ncc(N3CCC4(CN(c5ccnc(OC(F)F)c5)C4)C3)nc21` [Cmpd 452], the EC50 is less than 10 µM.

`Fc1cnc(N2CC3(CCN(c4cnc5cnn(CC(F)F)c5n4)C3)C2)cc1C(F)(F)F` [Cmpd 453] displayed an EC50 of 10 to 50 µM.

As to `Cc1cc(N2CC3(CCN(c4cnc5cnn(C6COC6)c5n4)C3)C2)nc(C(F)(F)F)n1` [Cmpd 454], the EC50 was 10 to 50 µM.

Compound `Cc1nc(N2CC3(CCN(c4cnc5c(C)nn(C6COC6)c5n4)C3)C2)cc(C(F)(F)F)n1` [Cmpd 455] registered a 50% effective concentration (EC50) of 10 to 50 µM.

Turning to `Cc1cc(N2CC3(CCN(c4cnc5cnn(C6COC6)c5n4)CC3)CC2=O)nc(C(F)(F)F)n1` [Cmpd 456], the EC50 lay in the range of 10 to 50 µM.

Regarding `Cc1nc(N2CC3(CCN(c4cnc5cnn(C6COC6)c5n4)CC3)CC2=O)cc(C(F)(F)F)n1` [Cmpd 457], the EC50 lay in the range of 10 to 50 µM.

For the compound `Cc1cc(N2CC3(CCN(c4cnc5c(C)nn(C6COC6)c5n4)CC3)CC2=O)nc(C(F)(F)F)n1` [Cmpd 458], the EC50 was less than 10 µM.

Compound `Cc1nc(N2CC3(CCN(c4cnc5c(C)nn(C6COC6)c5n4)CC3)CC2=O)cc(C(F)(F)F)n1` [Cmpd 459] showed an EC50 of 10 to 50 µM.

Regarding `Cc1nn(C2COC2)c2nc(N3CCC4(CN(c5cnc(C(F)(F)F)nc5)C4)C3)ncc12` [Cmpd 460], the EC50 was less than 10 µM.

`Cc1ncc(N2CC3(CCN(c4cnc5cnn(CC(F)F)c5n4)C3)C2)cn1` [Cmpd 461]: the concentration for a half-maximal effect (EC50) is more than 100 µM.

Regarding `CCc1ncc(N2CC3(CCN(c4cnc5cnn(CC(F)F)c5n4)C3)C2)cn1` [Cmpd 462], the EC50 was in the range of 10 to 50 µM.

`Cc1cc(N2CC3(CCN(c4cnc5cnn(CC(F)(F)F)c5n4)C3)C2)nc(C(F)(F)F)n1` [Cmpd 463] showed a 50% effective concentration (EC50) of 10 to 50 µM.

On to `Cc1cc(N2CC3(CCN(c4cnc5c(C)nn(CC(F)F)c5n4)C3)C2)nc(C(F)(F)F)n1` [Cmpd 464], for which the EC50 was less than 10 µM.

Consider `Cc1cc(N2CC3(CCN(c4cncc(-c5nncs5)n4)C3)C2)nc(C(F)(F)F)n1` [Cmpd 465], for which the EC50 is more than 100 µM.

`Cc1cc(N2CC3(CCN(c4ncc5cnn(CC(F)F)c5n4)C3)C2)nc(C(F)(F)F)n1` [Cmpd 466] yielded an EC50 of more than 100 µM.

For `Cc1cc(N2CC3(CCN(c4ncc5cnn(CC(F)(F)F)c5n4)C3)C2)nc(C(F)(F)F)n1` [Cmpd 467], the EC50 was less than 10 µM.

With `Cc1cc(N2CC3(CCN(c4ncc5c(C)nn(CC(F)F)c5n4)C3)C2)nc(C(F)(F)F)n1` [Cmpd 468], the EC50 is less than 10 µM.

Regarding `FC(F)(F)c1ncc(N2CC3(CCN(c4ncc5cnn(C6CCCCO6)c5n4)C3)C2)cn1` (stereo not shown) [Cmpd 469], the EC50 is more than 100 µM.

Turning to `FC(F)(F)c1ncc(N2CC3(CCN(c4cnc5cnn(C6CCCCO6)c5n4)C3)C2)cn1` (stereo not shown) [Cmpd 470], the EC50 lay in the range of 10 to 50 µM.

`Cc1cc(N2CC3(CCN(c4ncc5c(C)nn(C6COC6)c5n4)C3)C2)nc(C(F)(F)F)n1` [Cmpd 471] showed an EC50 of less than 10 µM.

`FC(F)Cn1ncc2ncc(N3CCC4(CCN(c5ccnc(C(F)(F)F)c5)C4)C3)nc21` (stereo not shown) [Cmpd 472] registered an EC50 of more than 100 µM.

For the compound `FC(F)(F)Cn1ncc2ncc(N3CCC4(CCN(c5ccnc(C(F)(F)F)c5)C4)C3)nc21` (stereo not shown) [Cmpd 473], the 50% effective concentration (EC50) lay in the range of 10 to 50 µM.

For the compound `FC(F)(F)c1cc(N2CCC3(CCN(c4ncc5cnn(C6COC6)c5n4)C3)C2)ccn1` (stereo not shown) [Cmpd 474], the EC50 is more than 100 µM.

The compound `Cc1nn(C2COC2)c2nc(N3CCC4(CCN(c5ccnc(C(F)(F)F)c5)C4)C3)ncc12` (stereo not shown) [Cmpd 475] yielded an EC50 of more than 100 µM.

Consider `Cc1nn(C2COC2)c2nc(N3CCC4(CCN(c5ccnc(C(F)(F)F)c5)C4)C3)cnc12` (stereo not shown) [Cmpd 476], for which the EC50 was 50 to 100 µM.

`FC(F)(F)Cn1ncc2ncc(N3CCC4(CC3)CN(c3cc(C(F)(F)F)ccn3)C4)nc21` [Cmpd 477] gave an EC50 of less than 10 µM.

In turn, `FC(F)(F)c1ccnc(N2CC3(CCN(c4ncc5cnn(C6COC6)c5n4)CC3)C2)c1` [Cmpd 478] gave an EC50 of less than 10 µM.

With `Cc1nn(C2COC2)c2nc(N3CCC4(CC3)CN(c3cc(C(F)(F)F)ccn3)C4)ncc12` [Cmpd 479], the EC50 is more than 100 µM.

Regarding `Cc1nn(C2COC2)c2nc(N3CCC4(CC3)CN(c3cc(C(F)(F)F)ccn3)C4)cnc12` [Cmpd 480], the EC50 lay within 10 to 50 µM.

Compound `FC(F)Cn1ncc2ncc(N3CCC4(CCN(c5cnc(C(F)(F)F)nc5)C4)C3)nc21` (stereo not shown) [Cmpd 481] came in with an EC50 of 10 to 50 µM.

As for `FC(F)Cn1ncc2ncc(N3CCC4(CCN(c5ccc(C(F)(F)F)nc5)C4)C3)nc21` (stereo not shown) [Cmpd 482], the EC50 fell in the range of 10 to 50 µM.

For the compound `FC(F)Cn1ncc2ncc(N3CCC4(CCN(c5ccc(C(F)(F)F)cn5)C4)C3)nc21` (stereo not shown) [Cmpd 483], the EC50 lay within 10 to 50 µM.

In turn, `FC(F)Cn1ncc2ncc(N3CCC4(CCN(c5ccnc(C(F)(F)F)n5)C4)C3)nc21` (stereo not shown) [Cmpd 484] returned an EC50 of less than 10 µM.

`Cc1nn(CC(F)F)c2nc(N3CCC4(CCN(c5ccnc(C(F)(F)F)c5)C4)C3)cnc12` (stereo not shown) [Cmpd 485] showed an EC50 of more than 100 µM.

For `Cc1nn(CC(F)F)c2nc(N3CCC4(CCN(c5ccnc(C(F)(F)F)c5)C4)C3)ncc12` (stereo not shown) [Cmpd 486], the EC50 was in the range of 50 to 100 µM.

Turning to `FC(F)(F)c1cc(N2CCC3(CCN(c4cnc5cnn(C6COC6)c5n4)C3)C2)ccn1` (stereo not shown) [Cmpd 487], the EC50 was 10 to 50 µM.

As for `FC(F)Cn1ncc2cnc(N3CCC4(CCN(c5ccnc(C(F)(F)F)c5)C4)C3)nc21` (stereo not shown) [Cmpd 488], the EC50 was more than 100 µM.

`FC(F)(F)Cn1ncc2cnc(N3CCC4(CCN(c5ccnc(C(F)(F)F)c5)C4)C3)nc21` (stereo not shown) [Cmpd 489]: the EC50 is 10 to 50 µM.

`Cc1nn(CC(F)F)c2nc(N3CCC4(CC3)CN(c3cc(C(F)(F)F)ccn3)C4)cnc12` [Cmpd 490]: the EC50 is less than 10 µM.

`Cc1nn(CC(F)F)c2nc(N3CCC4(CC3)CN(c3cc(C(F)(F)F)ccn3)C4)ncc12` [Cmpd 491] came in with an EC50 of 10 to 50 µM.

On to `FC(F)Cn1ncc2cnc(N3CCC4(CC3)CN(c3cc(C(F)(F)F)ccn3)C4)nc21` [Cmpd 492], for which the EC50 was 10 to 50 µM.

`FC(F)(F)c1ccnc(N2CC3(CCN(c4cnc5cnn(C6COC6)c5n4)CC3)C2)c1` [Cmpd 493] showed an EC50 of less than 10 µM.

`O=C1CC2(CCN(c3cnc4cnn(CC(F)F)c4n3)C2)CN1c1ccnc(C(F)(F)F)c1` (stereo not shown) [Cmpd 494] came in with an EC50 of less than 10 µM.

`Cc1nn(CC(F)F)c2nc(N3CCC4(CC(=O)N(c5ccnc(C(F)(F)F)c5)C4)C3)cnc12` (stereo not shown) [Cmpd 495] yielded an EC50 of 10 to 50 µM.

On to `Cc1nn(CC(F)F)c2nc(N3CCC4(CC(=O)N(c5ccnc(C(F)(F)F)c5)C4)C3)ncc12` (stereo not shown) [Cmpd 496], for which the EC50 fell in the range of 10 to 50 µM.

Take `O=C1CC2(CCN(c3cnc4cnn(CC(F)F)c4n3)C2)CN1c1ccc(C(F)(F)F)cn1` (stereo not shown) [Cmpd 497]: the 50% effective concentration (EC50) is 50 to 100 µM.

Compound `O=C1CC2(CCN(c3cnc4cnn(CC(F)F)c4n3)C2)CN1c1ccc(C(F)(F)F)nc1` (stereo not shown) [Cmpd 498] registered an EC50 of 10 to 50 µM.

The compound `Cc1nc(N2CC3(CCN(c4cnc5cnn(CC(F)(F)F)c5n4)C3)C2)cc(C(F)(F)F)n1` [Cmpd 499] had an EC50 of less than 10 µM.

`Cc1nc(N2CC3(CCN(c4ncc5cnn(CC(F)(F)F)c5n4)C3)C2)cc(C(F)(F)F)n1` [Cmpd 500]: the EC50 is more than 100 µM.

`Cc1nc(N2CC3(CCN(c4ncc5cnn(CC(F)F)c5n4)C3)C2)cc(C(F)(F)F)n1` [Cmpd 501]: the EC50 is more than 100 µM.

Turning to `Cc1nc(N2CC3(CCN(c4ncc5c(C)nn(CC(F)F)c5n4)C3)C2)cc(C(F)(F)F)n1` [Cmpd 502], the EC50 was less than 10 µM.

For `Cc1nc(N2CC3(CCN(c4cnc5c(C)nn(CC(F)F)c5n4)C3)C2)cc(C(F)(F)F)n1` [Cmpd 503], the EC50 was less than 10 µM.

For the compound `Cc1nc(N2CC3(CCN(c4ncc5c(C)nn(C6COC6)c5n4)C3)C2)cc(C(F)(F)F)n1` [Cmpd 504], the EC50 lay in the range of 10 to 50 µM.

Turning to `Cc1nc(N2CC3(CCN(c4cncc(-c5nncs5)n4)C3)C2)cc(C(F)(F)F)n1` [Cmpd 505], the EC50 was more than 100 µM.

Consider `O=C1CC2(CCN(c3ccnc(C(F)(F)F)c3)C2)CN1c1cnc2cnn(CC(F)F)c2n1` (stereo not shown) [Cmpd 506], for which the EC50 was more than 100 µM.

With `O=C1CC2(CCN(c3ccc(C(F)(F)F)nc3)C2)CN1c1cnc2cnn(CC(F)F)c2n1` (stereo not shown) [Cmpd 507], the EC50 was less than 10 µM.

In turn, `O=C1CC2(CCN(c3ccc(C(F)(F)F)cn3)C2)CN1c1cnc2cnn(CC(F)F)c2n1` (stereo not shown) [Cmpd 508] showed an EC50 of 10 to 50 µM.

The compound `Cc1nc(N2CCC3(CC(=O)N(c4cnc5cnn(CC(F)F)c5n4)C3)C2)cc(C(F)(F)F)n1` (stereo not shown) [Cmpd 509] came in with an EC50 of 10 to 50 µM.

For the compound `Cc1nc(N2CC3(CCN(c4cnc5cnn(CC(F)F)c5n4)C3)CC2=O)cc(C(F)(F)F)n1` (stereo not shown) [Cmpd 510], the EC50 is more than 100 µM.

Take `Cc1nc(N2CCC3(CCN(c4cnc5cnn(CC(F)F)c5n4)CC3)C2)cc(C(F)(F)F)n1` [Cmpd 511]: the EC50 is less than 10 µM.

The compound `Cc1nc(N2CCC3(CCN(c4cnc5cnn(CC(F)F)c5n4)CC3)C2=O)cc(C(F)(F)F)n1` [Cmpd 512] showed a concentration giving a half-maximal response (EC50) of less than 10 µM.

Compound `Cc1nc(N2CC3(CCN(c4cnc5cnn(CC(F)F)c5n4)CC3)CC2=O)cc(C(F)(F)F)n1` [Cmpd 513] registered an EC50 of 10 to 50 µM.

Turning to `Cc1nn(CC(F)F)c2nc(N3CCC4(CCN(c5ccnc(C(F)(F)F)c5)C4=O)C3)cnc12` (stereo not shown) [Cmpd 514], the EC50 was less than 10 µM.
